Series [1] has as its system complement alternative pathway (AP). The series can be described thus: C3b ELISA (inhibition of C3b formation). The series is classed as biochemical, human. The note with it: for IC50: Table 9, means from three independent experiments, read-out: IC50, C3b ELISA. The method, then:
(§1) Inhibition of the complement alternative pathway (AP) by compstatin family peptides was assayed by ELISA. Peptides were dissolved in phosphate buffered saline (PBS, 150 mM). Initial peptide concentrations were calculated using the Beer-Lambert Law with an extinction coefficient of 5,500 (1/M·cm) for Trp and 5,470 (1/M·cm) for methylated-Trp present in the sequence, at 280 nm. Nunc Maxisorp 96-well plates were coated with 1 μg lipopolysaccharides (LPS) from Salmonella enteriditis for ˜16 h at room temperature. Plates were washed three times with PBS/0.05% Tween-20 (PBS-T) between each step. Plates were blocked with 4% bovine serum albumin (BSA) in PBS-T for 1 h at 37° C. Serial peptide dilutions were performed in 96-well plates, using gelatin veronal-buffered saline with 5 mM MgCl2 and 10 mM EGTA (GVBS-MgEGTA). Normal human serum (Complement Technology Inc., Tyler, Tex., USA) was diluted in GVBS-MgEGTA and mixed with compstatin serial dilutions to a final concentration of 30%. Serum diluted in GVBS-MgEGTA and GVBS (containing 20 mM EDTA) were used as positive and negative controls for complement activation, respectively. Dilutions were preincubated for 15 minutes at room temperature, transferred to ELISA plates, and incubated for 1 h at 37° C. Generation of C3b and C5b-9 were assayed using horseradish peroxidase (HRP)-conjugated anti-C3 (MP Biomedicals, Solon, Ohio, USA) and anti-05b-9 aEll (Abcam, Cambridge, Mass., USA), respectively. Plates were washed and incubated with either anti-C3-HRP (1:5000 in 1% BSA/PBS-T) or anti-05b-9 (1:1000 in 1% BSA/PBS-T) for 1 h at 37° C. For C5b-9 detection, primary antibody incubation was followed by incubation with anti-mouse-HRP (BioRad, Hercules, Calif., USA) for 1 h at 37° C. (1:5000 in 1% BSA/PBS-T). Bound C3b and C5b-9 were quantified using a 3,3′,5,5′-tetramethylbenzidine substrate solution containing urea hydrogen peroxide in 0.11 M sodium acetate buffer, followed by a 1 N H2SO4 acid stop. Plates were measured spectrophotometrically at 450 nm. Percent inhibition of C3b and C5b-9 deposition was plotted against peptide concentration and the data was fitted to a logistic dose response curve with Prism software (GraphPad, San Diego, Calif., USA) to determine IC50 values.
(§2) In all assays, MgEGTA was used to chelate Ca′ ions required for classical/lectin pathway complement activation, while providing Mg′ necessary for AP activation. ELISAs allow for direct detection of C3b and C5b-9 formed during AP activation, while erythrocyte lysis assays provide a functional assessment of AP-mediated hemolysis in serum. […] Table 9 summarizes the IC50 values derived from the three different assays. […] The relative potencies of the peptides, based on the measured ICH values, are consistent across all three assays (Peptide III˜Peptide VI˜Peptide IX>Peptide I>Parent). Based on the assay conditions used in this study, peptides inhibited C5b-9 formation with moderately better efficacy than formation of C3b, while slightly higher concentrations were necessary to inhibit AP-mediated hemolysis.
(In general: ELISA stands for enzyme-linked immunosorbent assay.)

The test system is the same in series [2]. The series can be described thus: C5b-9 ELISA (inhibition of C5b-9 terminal complex formation). The format is biochemical, human. The procedure:
as §1, §2

Series [3] can be described thus: RP-HPLC relative lipophilicity (retention factor k, log k). The format is physicochemical. The procedure: The effect of the hydrophobic content of compstatin family peptides on relative lipophilicity was evaluated using RP-HPLC, a widely applied indirect technique for the determination of the lipophilicity of drugs and drug candidates. The determination of log P by RP-HPLC is based on the measurement of the retention factor k between the mobile and stationary phase (Eq. 7) of the investigated compound:
[formula] where tR is the retention time of the analyte, and to is the elution time of an unretained analyte. The logarithm of the retention factor is linearly correlated with the logarithm of the partition coefficient log P=a log k+b (8). where a and b are the slope and intercept of the linear equation.
The determination of log P values requires calibration using structurally related compounds, and is beyond the scope of this study. Instead the log k values were used to indicate the relative lipophilicities of this compstatin peptide family.
HPLC experiments were carried out using an Agilent 1100 HPLC with UV detection at 280 nm at 25° C. Separations were performed on a Waters (Milford, Mass.) 4.6×150 mm XTerra MS C18 column with 5 μm pore size using a mobile phase of A: 10 mM phosphate buffer pH=7.4 containing 1% TFA, and B: acetonitrile. The purity of the peptides was verified by an isocratic separation at 28% B and a flow rate of 1 mL/min. Solutions containing 0.6-0.8 mg/mL of Peptides I, III, VI, IX and the parent peptide were prepared in methanol and diluted 5-times with the eluent. All five peptides eluted as single peaks indicating a high degree of purity (FIG. 10).
For the determination of the relative lipophilicities a solution containing each of the peptides was prepared from the stock solutions and injected in triplicate. […] A 0.5 mg/mL solution of aspartic acid was used as the unretained analyte for the determination of the column dead time, 1.439±0.003 min.
RP-HPLC was used to measure the hydrophobicity/lipophilicity content of the compstatin family peptides. The retention of a compound in RP-HPLC depends on its hydrophobicity/lipophilicity content, and is correlated to the octanol-water partition ratio. Lipophilicity describes the partitioning of a compound between an aqueous and a lipidic/hydrophobic environment, and is an essential physicochemical parameter to determine pharmacokinetic behavior according to ADME (absorption, distribution, metabolism, excretion) characterization. Because the compstatin family peptides consist of a hydrophobic and a polar surface, their ability to bind to the hydrophobic cavity of C3, while maintaining a solvent-exposed face has been evaluated here as lipohilicity content, measured by RP-HPLC. In addition, lipohilicity is inversely proportional to aqueous solubility, and therefore can be used to estimate solubility of the peptides in their free (unbound) state.

[4] abbreviates: Table 9, means from three independent experiments, read-out: IC50, C5b-9 ELISA.
The mark [5] stands for this setting: table 13, read-out: C5b-9 ELISA IC50.

Structures are written as SMILES. Where “and” joins values, the source holds several entries; their conditions need not be identical. Equal values may be shown once. Bridge positions count the residues as written; N and C are the ends. Square brackets hold non-standard residues; d marks the D form. Peptide text beside a SMILES is read from it. Trp(1-Me) = Cn1cc(C[C@H](N)C(=O)O)c2ccccc21

These results are taken from US9512180B2, “Compstatin analogs” (THE REGENTS OF THE UNIVERSITY OF CALIFORNIA, priority 2012, dated 2016).

On to `CC[C@H](C)[C@H](N)C(=O)N[C@H]1CSSC[C@@H](C(=O)N[C@H](C(N)=O)[C@@H](C)O)NC(=O)[C@H](CCCN=C(N)N)NC(=O)[C@H](Cc2cnc[nH]2)NC(=O)[C@H](Cc2cnc[nH]2)NC(=O)CNC(=O)[C@H](Cc2c[nH]c3ccccc23)NC(=O)[C@H](CC(=O)O)NC(=O)[C@H](CCC(N)=O)NC(=O)[C@H](C(C)C)NC(=O)[C@H](C(C)C)NC1=O` [Parent, ICV VQDWGH HRCT-NH2, reference compound], for which the “inhibition less than other peptides” value is recorded as 10- to 15 fold in series [1] (C3b inhibition in ELISA, versus Peptides I, III, VI, IX) and 10- to 15 fold in series [2] (C5b-9 inhibition in ELISA, versus Peptides I, III, VI, IX). In addition, the IC50 in series [1] was 35 µM; in series [2] (setting [4]), 18.6 µM; in series [2] (setting [5]), 18.6 µM and 12.6 µM. The “Retention factor (k)” value in series [3] was found to be 2.472. This molecule also registered a logk in series [3] of 0.393. The relative lipophilicity entry in series [3] (isocratic 24% acetonitrile, pH=7.4 phosphate buffer) is on record as “least lipophilic”.

Take `CC[C@H](C)[C@H](NC(=O)[C@H](CO)NC(=O)[C@H](CCCNC(=N)N)NC(C)=O)C(=O)N[C@H]1CSSC[C@@H](C(=O)N[C@H](C(N)=O)[C@@H](C)O)NC(=O)[C@H](CCCNC(=N)N)NC(=O)[C@H](Cc2c[nH]cn2)NC(=O)[C@H](C)NC(=O)CNC(=O)[C@H](Cc2c[nH]c3ccccc23)NC(=O)[C@H](CC(=O)O)NC(=O)[C@H](CCC(N)=O)NC(=O)[C@H](Cc2cn(C)c3ccccc23)NC(=O)[C@H](C(C)C)NC1=O` [Peptide VI, Ac-RS-ICV meWQDWGA HRCT-NH2]: the IC50 in series [1] was 1.74 µM; in series [2] (setting [4]), 1.13 µM; in series [2] (setting [5]), 0.6 µM and 1.1 µM. In series [3], the “Retention factor (k)” value was found to be 9.913. Besides, the logk in series [3] came to 0.996.

For the molecule `CC(=O)N[C@@H](CCCNC(=N)N)C(=O)N[C@H]1CSSC[C@@H](C(=O)N[C@H](C(N)=O)[C@@H](C)O)NC(=O)[C@H](CCCNC(=N)N)NC(=O)[C@H](Cc2c[nH]cn2)NC(=O)[C@H](C)NC(=O)CNC(=O)[C@H](Cc2c[nH]c3ccccc23)NC(=O)[C@H](CC(=O)O)NC(=O)[C@H](CCC(N)=O)NC(=O)[C@H](Cc2cn(C)c3ccccc23)NC(=O)[C@H](C(C)C)NC1=O` [Peptide III, Ac- RCV meWQDWGA HRCT-NH2] (Ac-RCV[Trp(1-Me)]QDWGAHRCT-NH2; disulfide 2-12), the IC50 in series [1] is 1.42 µM; in series [2] (setting [4]) it was 1.07 µM; in series [2] (setting [5]), 0.6 µM and 1.1 µM. Further, in series [3], the “Retention factor (k)” value worked out at 6.165. The molecule also had a logk in series [3] of 0.790.

In the case of `CC(=O)N[C@@H](CCCNC(=N)N)C(=O)N[C@H]1CSSC[C@@H](C(=O)N[C@H](C(N)=O)[C@@H](C)O)NC(=O)[C@H](CCCNC(=N)N)NC(=O)[C@H](Cc2c[nH]cn2)NC(=O)[C@H](C)NC(=O)CNC(=O)[C@H](Cc2c[nH]c3ccccc23)NC(=O)[C@H](CC(=O)O)NC(=O)[C@H](CCC(N)=O)NC(=O)[C@H](Cc2c[nH]c3ccccc23)NC(=O)[C@H](C(C)C)NC1=O` [Peptide I, Ac- RCV WQDWGA HRCT-NH2] (Ac-RCVWQDWGAHRCT-NH2; disulfide 2-12), the IC50 in series [1] is 2.58 µM; in series [2] (setting [4]), 2.02 µM; in series [2] (setting [5]) it was 1 µM and 2 µM. For the same molecule, the “Retention factor (k)” value in series [3] was determined as 2.828. The logk in series [3] came out at 0.451.

A word on the IC50: it is the concentration that gives 50% inhibition.
